Measurements taken from US20060241078A1, “Pharmaceutical compositions comprising a contraceptive agent in solution and a teratogen” (priority 2005, published 2006).

Experiment: Solubility of estrogen and progestin in solubilizing agents and oils (visual, dropwise solvent addition);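 note: about 10 mg estrogen or progestin titrated with solubilizing agent or oil, added dropwise with shaking until fully dissolved, completion judged by eye under light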
[1] = solvent/oil: MAPEG 400 DO PEG ester
[2] = solvent/oil: Supernatant of soybean oil containing isotretinoin (40 mg isotretinoin particles in 1 gram of oil, particles removed by centrifugation)

Solubility (solvent/oil: Crodamol EO) | Solubility (solvent/oil: Crodamol GTCC-PN) | Solubility (solvent/oil: Crovol A40) | Solubility (solvent/oil: Ethanol) | Solubility [1] | Solubility (solvent/oil: Myvacet 9-45K) | Solubility (solvent/oil: Soybean oil) | Solubility [2] | Compound
2.6 mg drug/g solvent or oil | 3.4 mg drug/g solvent or oil | 6.7 mg drug/g solvent or oil | 20.5 mg drug/g solvent or oil | 9.5 mg drug/g solvent or oil | 4.3 mg drug/g solvent or oil | 1.9 mg drug/g solvent or oil | 0.802 mg drug/g solvent or oil | C#C[C@]1(OC(C)=O)CC[C@H]2[C@@H]3CCC4=CC(=NO)CC[C@@H]4[C@H]3CC[C@@]21CC (mixture of isomers) [Norgestimate, norgestimate]
12.94 mg drug/g solvent or oil | 12.03 mg drug/g solvent or oil | 21.37 mg drug/g solvent or oil | 206 mg drug/g solvent or oil | 12.08 mg drug/g solvent or oil | 18.08 mg drug/g solvent or oil | 5.32 mg drug/g solvent or oil | 2.89 mg drug/g solvent or oil | C#C[C@]1(O)CC[C@H]2[C@@H]3CCc4cc(O)ccc4[C@H]3CC[C@@]21C [Ethinyl estradiol, ethinyl estradiol]
14.42 mg drug/g solvent or oil | 17.94 mg drug/g solvent or oil | 15.85 mg drug/g solvent or oil | 49.46 mg drug/g solvent or oil | 9.34 mg drug/g solvent or oil | 14.47 mg drug/g solvent or oil | 6.41 mg drug/g solvent or oil | 3.92 mg drug/g solvent or oil | C#C[C@]1(OC(C)=O)CC[C@H]2[C@@H]3CCC4=CC(=O)CC[C@@H]4[C@H]3CC[C@@]21C [Norethindrone Acetate, norethindrone acetate]
